Here are results for one compound from ChEMBL document CHEMBL4007467, “Effects of 6-paradol, an unsaturated ketone from gingers, on cytochrome P450-mediated drug metabolism” (Bioorg Med Chem Lett, 2017).

Common to all, as to format: ADME
One data set deals with Cytochrome P450 2C19 (Homo sapiens, UniProt P33261). Nature of the data set: Inhibition of human CYP2C19 using (S)-mephenytoin as substrate incubated for 5 mins followed by NADPH addition measured after 30 mins by LC-MS/MS analysis.
The target in data set [1] is T1, CYP2B6 (Homo sapiens, UniProt P20813).
T1 sequence (P20813 whole entry): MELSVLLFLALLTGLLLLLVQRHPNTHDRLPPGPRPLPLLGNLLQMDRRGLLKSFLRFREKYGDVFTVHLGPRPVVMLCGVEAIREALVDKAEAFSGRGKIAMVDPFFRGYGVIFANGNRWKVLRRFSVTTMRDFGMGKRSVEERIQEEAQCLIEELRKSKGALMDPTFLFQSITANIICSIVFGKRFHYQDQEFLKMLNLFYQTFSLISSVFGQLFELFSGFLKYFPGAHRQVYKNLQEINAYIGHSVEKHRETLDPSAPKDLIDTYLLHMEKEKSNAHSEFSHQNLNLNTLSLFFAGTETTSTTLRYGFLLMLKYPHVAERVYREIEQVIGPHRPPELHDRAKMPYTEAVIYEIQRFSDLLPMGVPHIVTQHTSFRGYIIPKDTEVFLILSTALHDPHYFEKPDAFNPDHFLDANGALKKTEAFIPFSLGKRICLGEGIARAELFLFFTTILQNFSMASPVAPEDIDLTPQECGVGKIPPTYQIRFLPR
Nature of the data set: Inhibition of CYP2B6 in human liver microsomes assessed as enzyme-mediated metabolite formation at 1 uM using bupropion as substrate preincubated for 20 mins followed by substrate addition measured after 30 mins in presence of NADPH by LC-MS/MS analysis relative to control. Particulars: probe bupropion, read-out: Activity. Also noted: scale not given: the % may be the effect or the level left.

In a further data set the target is CYP2C9 (Homo sapiens, UniProt P11712). In words: Inhibition of CYP2C9 in human liver microsomes assessed as enzyme-mediated metabolite formation at 0.1 uM using diclofenac as substrate incubated for 5 mins followed by NADPH addition measured after 30 mins by LC-MS/MS analysis relative to control. On the set-up: scale not given: the % may be the effect or the level left. To be noted: probe diclofenac, read-out: Activity.

For a further data set, the target named is Cytochrome P450 3A4 (Homo sapiens, UniProt P08684). Nature of the data set: Inhibition of CYP3A4 in human liver microsomes assessed as enzyme-mediated metabolite formation using testosterone as substrate incubated for 5 mins followed by NADPH addition measured after 30 mins by LC-MS/MS analysis.
The target of another data set is T2, CYP2A6 (Homo sapiens, UniProt P11509).
T2 sequence (P11509 whole entry): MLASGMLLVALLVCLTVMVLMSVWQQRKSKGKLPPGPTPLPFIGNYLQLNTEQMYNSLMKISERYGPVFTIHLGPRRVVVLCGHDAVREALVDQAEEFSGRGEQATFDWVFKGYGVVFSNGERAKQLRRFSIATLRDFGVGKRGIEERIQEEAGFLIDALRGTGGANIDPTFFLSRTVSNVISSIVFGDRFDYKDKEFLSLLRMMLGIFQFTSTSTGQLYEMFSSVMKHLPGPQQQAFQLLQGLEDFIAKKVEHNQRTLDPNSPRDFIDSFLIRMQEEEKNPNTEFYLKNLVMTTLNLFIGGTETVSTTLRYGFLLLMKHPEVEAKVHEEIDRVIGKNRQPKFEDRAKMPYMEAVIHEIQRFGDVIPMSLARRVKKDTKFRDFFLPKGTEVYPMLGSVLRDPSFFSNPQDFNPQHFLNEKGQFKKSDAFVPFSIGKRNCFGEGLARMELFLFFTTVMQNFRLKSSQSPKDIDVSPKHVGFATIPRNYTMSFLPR
In words: Inhibition of CYP2A6 in human liver microsomes assessed as enzyme-mediated metabolite formation at 1 uM using coumarin as substrate incubated for 5 mins followed by NADPH addition measured after 30 mins by LC-MS/MS analysis relative to control. Also noted: scale not given: the % may be the effect or the level left. Particulars: probe coumarin, read-out: Activity.

In data set [2] the target is T1, CYP2B6. In words: Inhibition of CYP2B6 in human liver microsomes assessed as enzyme-mediated metabolite formation at 30 uM using bupropion as substrate preincubated for 20 mins followed by substrate addition measured after 30 mins in presence of NADPH by LC-MS/MS analysis relative to control. Also noted: scale not given: the % may be the effect or the level left. To be noted: probe bupropion, read-out: Activity.

Data set [3] deals with T3, CYP2C8 (Homo sapiens, UniProt P10632).
T3 sequence (P10632 whole entry): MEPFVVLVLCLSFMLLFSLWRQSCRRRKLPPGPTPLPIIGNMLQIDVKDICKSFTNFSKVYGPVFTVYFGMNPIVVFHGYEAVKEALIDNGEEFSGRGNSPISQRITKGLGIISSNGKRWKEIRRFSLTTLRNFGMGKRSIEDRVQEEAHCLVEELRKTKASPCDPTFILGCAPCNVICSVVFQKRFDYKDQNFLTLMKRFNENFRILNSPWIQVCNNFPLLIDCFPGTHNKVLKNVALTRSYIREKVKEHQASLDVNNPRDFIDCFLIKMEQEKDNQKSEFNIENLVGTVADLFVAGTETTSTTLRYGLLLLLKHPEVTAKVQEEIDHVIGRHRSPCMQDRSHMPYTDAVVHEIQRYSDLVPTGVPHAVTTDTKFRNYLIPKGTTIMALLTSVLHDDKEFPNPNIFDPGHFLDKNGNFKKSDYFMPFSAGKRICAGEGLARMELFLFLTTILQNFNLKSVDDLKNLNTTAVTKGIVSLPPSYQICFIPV
In words: Inhibition of CYP2C8 in human liver microsomes assessed as enzyme-mediated metabolite formation at 10 uM using paclitaxel as substrate incubated for 5 mins followed by NADPH addition measured after 30 mins by LC-MS/MS analysis relative to control. On the set-up: scale not given: the % may be the effect or the level left. To be noted: probe paclitaxel, read-out: Activity.

The target in a further data set is CYP3A4 (Homo sapiens, UniProt P08684). In words: Inhibition of CYP3A4 in human liver microsomes assessed as enzyme-mediated metabolite formation at 0.3 uM using testosterone as substrate preincubated for 20 mins followed by substrate addition measured after 30 mins in presence of NADPH by LC-MS/MS analysis relative to control. To be noted: probe testosterone, read-out: Activity. On the set-up: scale not given: the % may be the effect or the level left.

Data set [4] deals with T3, CYP2C8. In words: Inhibition of CYP2C8 in human liver microsomes assessed as enzyme-mediated metabolite formation at 0.1 uM using paclitaxel as substrate incubated for 5 mins followed by NADPH addition measured after 30 mins by LC-MS/MS analysis relative to control. On the set-up: scale not given: the % may be the effect or the level left. To be noted: probe paclitaxel, read-out: Activity.

Chain of Cytochrome P450 2C19 (P33261 whole entry): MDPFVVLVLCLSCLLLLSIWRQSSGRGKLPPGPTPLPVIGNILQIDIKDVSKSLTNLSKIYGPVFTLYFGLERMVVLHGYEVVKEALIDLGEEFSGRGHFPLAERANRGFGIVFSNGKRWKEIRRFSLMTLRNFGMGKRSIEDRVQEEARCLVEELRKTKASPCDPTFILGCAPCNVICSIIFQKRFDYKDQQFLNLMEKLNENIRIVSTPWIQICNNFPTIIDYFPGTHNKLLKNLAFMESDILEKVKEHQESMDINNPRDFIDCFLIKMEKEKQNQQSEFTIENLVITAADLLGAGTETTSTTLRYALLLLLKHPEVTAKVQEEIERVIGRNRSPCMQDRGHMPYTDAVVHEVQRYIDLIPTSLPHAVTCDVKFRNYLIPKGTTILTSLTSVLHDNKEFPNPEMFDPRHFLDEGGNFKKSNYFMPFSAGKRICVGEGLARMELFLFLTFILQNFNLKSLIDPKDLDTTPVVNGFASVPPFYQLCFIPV
Chain of CYP2C9 (P11712 whole entry): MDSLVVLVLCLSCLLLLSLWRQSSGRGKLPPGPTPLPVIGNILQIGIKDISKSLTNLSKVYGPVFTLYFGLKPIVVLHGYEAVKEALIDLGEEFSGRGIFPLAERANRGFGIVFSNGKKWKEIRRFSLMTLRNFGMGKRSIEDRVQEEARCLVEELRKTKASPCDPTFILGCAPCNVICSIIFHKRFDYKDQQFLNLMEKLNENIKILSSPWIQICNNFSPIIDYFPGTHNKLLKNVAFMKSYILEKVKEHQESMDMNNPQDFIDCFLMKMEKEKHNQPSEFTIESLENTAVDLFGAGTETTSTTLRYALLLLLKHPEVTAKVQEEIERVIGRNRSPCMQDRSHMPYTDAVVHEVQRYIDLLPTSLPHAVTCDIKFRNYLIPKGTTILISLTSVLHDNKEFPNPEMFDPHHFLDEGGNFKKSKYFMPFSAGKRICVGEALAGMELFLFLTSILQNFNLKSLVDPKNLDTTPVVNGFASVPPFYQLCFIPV
Chain of Cytochrome P450 3A4 (P08684 whole entry): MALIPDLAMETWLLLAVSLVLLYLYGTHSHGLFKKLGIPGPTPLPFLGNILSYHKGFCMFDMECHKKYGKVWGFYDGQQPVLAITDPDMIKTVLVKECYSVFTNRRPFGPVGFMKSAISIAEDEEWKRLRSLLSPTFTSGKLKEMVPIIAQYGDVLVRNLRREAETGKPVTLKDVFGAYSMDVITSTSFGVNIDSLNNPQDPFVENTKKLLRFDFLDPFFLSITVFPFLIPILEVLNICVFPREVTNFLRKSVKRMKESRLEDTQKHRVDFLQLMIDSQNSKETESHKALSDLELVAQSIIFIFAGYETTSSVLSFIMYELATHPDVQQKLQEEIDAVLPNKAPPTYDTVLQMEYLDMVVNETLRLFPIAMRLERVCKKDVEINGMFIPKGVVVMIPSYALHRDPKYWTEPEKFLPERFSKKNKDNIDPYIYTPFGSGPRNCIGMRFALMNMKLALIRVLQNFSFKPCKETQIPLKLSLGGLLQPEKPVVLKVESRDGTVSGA
Chain of CYP3A4 (P08684 whole entry): as above

With `CCCCCCCC(=O)CCc1ccc(O)c(OC)c1`, the IC50 was determined as 5.8 µM against Cytochrome P450 2C19 and 30 µM at Cytochrome P450 3A4. Further, the “inhibition (INH)” value on Cytochrome P450 2C19 (human, 0.5 h) is reported as “Dose-dependent effect”. The activity at 0.5 h, 1 µM at CYP2B6 [1] stood at 79%; at CYP2A6, 83.6%. Moreover, the figures for the activity at 0.5 h, 0.1 µM on CYP2C9 and at CYP2C8 [4] were 120% and 88.7%, respectively. For the same compound, at CYP2B6 [2], the activity at 0.5 h, 30 µM came to 45.5%. Also, the activity at 0.5 h, 10 µM on CYP2C8 [3] is 45.5%. Also, the activity at 0.5 h, 0.3 µM on CYP3A4 is 87.4%.
